# Measurements published in US20210236512A1 (ZARODEX THERAPEUTICS LIMITED, priority 2018, published 2021).
# Several values for one entry are separate records, joined by “and”; a condition that tells them apart may be missing. Equal values may be shown once. Entries after “also recorded” stand apart in the source; their conditions may differ.
# Assays:
# [1] = tested on: Immunoglobulin levels (IgG, IgA and IgM); experiment: First observational study: serum immunoglobulin levels by nephelometry, clozapine-treated vs clozapine-naive patients; format: in vivo, human; details: secondary causes excluded
# [2] = human, in vivo; cited from earlier work
# [3] = tested on: Immunoglobulins (IgG, IgA, IgM); experiment: Immunological assessment of referred patients taking clozapine: serum immunoglobulins; format: in vivo, human; details: for Serum IgG after clozapine stopped: 24 months after discontinuation; for Serum IgG at discontinuation of clozapine: starting value before recovery
# [4] = tested on: B cell subsets and T cells in spleen; experiment: Wild type mouse study: spleen immunophenotyping by flow cytometry
# [5] = tested on: T follicular helper cells and T regulatory cells; experiment: Mouse CIA model: T follicular helper and T regulatory cells in spleen and lymph node by flow cytometry; format: in vivo, DBA/1 mice
# [6] = tested on: serum/plasma IgG, IgA, IgM; details: cited from earlier work
# [7] = in vivo; cited from earlier work
# [8] = tested on: circulating total IgG, IgA and IgM; experiment: Second observational study (interim analysis): circulating immunoglobulins and pneumococcal-specific IgG; format: in vivo, human
# [9] = sub-group C: schizophrenia diagnoses only, n=87
# [10] = sub-group D: smokers only, n=57
# [11] = one line per patient of Table 3
# [12] = clozapine treatment for six weeks (Hinze-Selch et al., 1998)
smiles,measurement,setting,value
"CN1CCN(C2=Nc3cc(Cl)ccc3Nc3ccccc32)CC1 [Clozapine, clozapine]","Serum IgG <5 g/L, percentage of patients",[1]; [9],2.3%
same,"Serum IgG <6 g/L (below reference range 6-16 g/L), percentage of patients",[1]; [9],9.2%
same,"Serum IgM <0.2 g/L, percentage of patients",[1]; [9],5.8%
same,"Serum IgM <0.3 g/L, percentage of patients",[1]; [9],12.6%
same,"Serum IgM <0.4 g/L, percentage of patients",[1]; [9],27.6%
same,"Serum IgM <0.5 g/L (below reference range 0.5-1.9 g/L), percentage of patients",[1]; [9],35.6%
same,"Serum IgA <0.5 g/L, percentage of patients",[1]; [10],3.5%
same,"Serum IgA <0.6 g/L, percentage of patients",[1]; [10],3.5%
same,"Serum IgA <0.7 g/L, percentage of patients",[1]; [10],3.5%
same,"Serum IgA <0.8 g/L (below reference range 0.8-4.0 g/L), percentage of patients",[1]; [10],10.5%
same,"Serum IgG <3 g/L, percentage of patients",[1]; [10],1.8%
same,"Serum IgG <4 g/L, percentage of patients",[1]; [10],1.8%
same,"Serum IgG <5 g/L, percentage of patients",[1]; [10],1.8%
same,"Serum IgG <6 g/L (below reference range 6-16 g/L), percentage of patients",[1]; [10],8.8%
same,"Serum IgM <0.2 g/L, percentage of patients",[1]; [10],1.78%
same,"Serum IgM <0.3 g/L, percentage of patients",[1]; [10],12.3%
same,"Serum IgM <0.4 g/L, percentage of patients",[1]; [10],26.3%
same,"Serum IgM <0.5 g/L (below reference range 0.5-1.9 g/L), percentage of patients",[1]; [10],33.3%
same,Previously treatment refractive schizophrenia patients in whom effective,[2],approximately 60%
same,Serum IgA and IgM following cessation of clozapine,[3]; FIG. 5 / one patient over 24 months,without clear improvement; also recorded: remained low
same,"Serum IgA, individual referred patient",[3]; [11],IgA 0.54 g/L; also recorded: IgA < 0.22 g/L; also recorded: IgA 0.49 g/L; also recorded: IgA 0.38 g/L; also recorded: undetectable; also recorded: IgA 0.26 g/L; also recorded: IgA 0.81 g/L; also recorded: IgA 0.63 g/L
same,"Serum IgM, individual referred patient",[3]; [11],IgM 0.3 g/L; also recorded: IgM < 0.17 g/L; also recorded: IgM 0.41 g/L; also recorded: IgM 0.23 g/L; also recorded: IgM 0.07 g/L; also recorded: IgM 0.18 g/L
same,"Serum IgG, individual referred patient",[3]; one line per patient of Table 3 (clozapine dose and duration differ),IgG 4.8 g/L; also recorded: IgG < 1.34 g/L; also recorded: IgG 5.24 g/L; also recorded: IgG 2.68 g/L; also recorded: IgG 2.98 g/L; also recorded: IgG 1.2 g/L; also recorded: IgG 3.3 g/L; also recorded: IgG 2.38 g/L; also recorded: IgG 4.24 g/L; also recorded: IgG 6.65 g/L; also recorded: IgG 5.61 g/L; also recorded: IgG 4.79 g/L
same,Serum IgG after clozapine stopped,[3]; one patient,IgG rose to 5.95 from g/L
same,Serum IgG after clozapine stopped,"[3]; one patient, listed as clozapine",5.95 g/L
same,Serum IgA after clozapine stopped,"[3]; one patient, after 24 months",0.29
same,Serum IgM after clozapine stopped,"[3]; one patient, after 24 months",0.49 after 24 months
same,"Serum IgG after clozapine stopped, intermediate value","[3]; one patient, within the 24 months after discontinuation",4.8 g/L
same,Serum IgG post-discontinuation of clozapine,[3]; over three years (FIG. 5),5.95 g/L
same,Mean serum IgA,[3]; referred patients on clozapine,0.34 g/L
same,Mean serum IgG,[3]; referred patients on clozapine,3.6 g/L
same,Mean serum IgM,[3]; referred patients on clozapine,0.21 g/L
same,Serum IgG at discontinuation of clozapine,[3],3.3 g/L
same,Serum IgG at discontinuation of clozapine,[3]; listed as clozapine,3.5 g/L and 3.3 g/L
same,Other splenic cell populations (B220-TCR-b-),[4]; 5 mg/kg and 10 mg/kg,No effect
same,Percentage of splenic T cells,[4]; 5 mg/kg and 10 mg/kg,reciprocal increase
same,Percentage of splenic B cells (B220+TCR-b-) as a proportion of total live splenocytes,"[4]; 5 mg/kg and 10 mg/kg IP, 21 days",significantly lower
same,Proportion of T2 B cells in the spleen,[4]; across all doses of clozapine,small increase
same,Activated T cells (B220+TCR-b+) in spleen vs control,[4]; clozapine 2.5-10 mg/kg,reduced in dose-dependent fashion
same,Splenic follicular or marginal zone B cell subsets,"[4]; clozapine IP, 21 days",no specific reductions
same,Proportion of transitional stage 1 (T1) B cells in the spleen,[4]; including at the 2.5 mg/kg dose,mildly reduced
same,Germinal centre cells in the spleen vs control or haloperidol,[4]; steady state,no differences
same,Proportions of CD4+PD1+CXCR5+ T follicular helper cells in lymph node or spleen,[5]; 5 or 10 mg/kg from day 1 or day 15,did not significantly affect
same,Expression of PD-1 (MFI) in lymph node T follicular helper cells,[5]; all doses and time points,Reduced expression
same,Expression of CD25 on Tregs,[5]; dosed from day 1,significantly upregulate
same,Foxp3 expression on Tregs,[5]; dosed from day 1,not alter
same,CXCR5 expression (MFI) on T follicular helper cells,"[5]; dosed from day 1, lymph node and spleen",significant reductions
same,Proportion of CD4+CD25+Foxp3+ T regulatory cells (Tregs),"[5]; higher dose tested, from day 1, lymph node and spleen",increase the proportion
same,Expression of CCR7 on T follicular helper cells,[5]; lymph node and spleen,reduced expression
same,"IgA, IgG, absolute neutrophil count and white blood cell count vs control group","[6]; Lozano et al., 2016",no differences
same,IgA or IgM concentrations or pattern of autoantibodies,[6]; [12],no significant effect
same,Serum concentrations of IgG,[6]; [12],significant increases
same,Mean plasma levels of IgM vs control group,"[6]; outpatients on clozapine for at least five years (Lozano et al., 2016)",overall decrease
same,LD50,[7],200 mg/kg
same,"Levels of circulating total IgG, IgA and IgM vs clozapine naive",[8]; FIG. 6A-C,Significantly reduced
same,IgG antibodies against pneumococcus vs clozapine naive,[8]; FIG. 7,trend to lower
